Tested on: A375 cells
Experiment: Cell viability assay in A375 cells (XTT)
Assay type: cell-based
Details: Homo sapiens, A-375, 72 h, three days after compound addition
Method: The cell viability assay in A375 cells is set up in a 96-well plate format using XTT.
XTT is a yellow tetrazolium salt that is cleaved to an orange formazan dye by the mitochondria of metabolically active cells. The procedure allows for rapid determination in a microtitre plate, to give reproducible and sensitive results.
A375 cells are grown in DMEM media containing 10% FBS and 1 mM sodium pyruvate. Cells are trypsinized and seeded at 1000 cells/well. After allowing the cells to adhere overnight, compound is added to the wells at the following final concentrations: 10, 3, 1, 0.3, 0.1, 0.03, 0.01, 0.001, and 0.0001 μM. The assay is set up in triplicates for each concentration. DMSO concentrations are kept at 0.5%/well. Three days after compound addition, the XTT assay is performed. Wells are washed once with PBS. 100 μL of DMEM media without phenol red or FBS is added to each well. A working solution of XTT containing 1 mg/ml XTT and 100 μL of PMS (stock concentration 0.383 mg/ml) per 5 ml is prepared. 50 μL of the working solution of XTT is added to each well. Absorbance of the plate is read at 465 nm using a Spectramax 190 (Molecular Devices). The absorbance from wells with media and XTT alone, but without cells is considered the blank and subtracted from readings from all wells.
Percentage viability is calculated considering the blank subtracted value from wells treated with DMSO alone as 100% viable. GI50 values are calculated using Graphpad Prism, using non-linear regression curve fit for sigmoidal dose response (variable slope).
The cell viability assay is further described in Scudiero, et. al., Cancer Research (1988) 48, 4827-4833; Weislow, et. al., J. Natl. Cancer Institute, (1989) 81, 577-586; and Roehm, et. al., J. Immunol. Methods [1991]142:257-265.

Row | SMILES | GI50
1 | O=C(NOCC1CC1)c1c(Nc2ccc(Br)cc2F)cc(=O)n2c1CCC2 [Compound 4] | 14 nM
2 | CONC(=O)c1c(Nc2ccc(Br)cc2F)cc(=O)n2c1CCC2 [Compound 6] | 150 nM
3 | CCONC(=O)c1c(Nc2ccc(Br)cc2F)cc(=O)n2c1CCC2 [Compound 10] | 40 nM
4 | O=C(NOCC1CC1)c1c(Nc2ccc(Br)cc2F)c(F)c(=O)n2c1CCC2 [Compound 20] | 55 nM
5 | Cc1c(Nc2ccc(Br)cc2F)c(C(=O)NOCC2CC2)c2n(c1=O)CCC2 [Compound 24] | 36 nM
6 | NC(=O)c1c(Nc2ccc(I)cc2F)cc(=O)n2c1CCC2 [Compound 38] | 73 nM
7 | O=C(NOCCO)c1c(Nc2ccc(I)cc2F)cc(=O)n2c1CCC2 [Compound 40] | 0.7 nM
8 | CCONC(=O)c1c(Nc2ccc(I)cc2F)cc(=O)n2c1CCC2 [Compound 42] | 3.6 nM
9 | O=C(NOCCO)c1c(Nc2ccc(I)cc2F)c(F)c(=O)n2c1CCC2 [Compound 46] | 6.7 nM

More lines, in order of falling GI50, values ahead:

Row | GI50 | SMILES
10 | 60 nM | CCONC(=O)c1c(Nc2ccc(Br)cc2F)c(C)c(=O)n2c1CCC2 [Compound 27]
11 | 10 nM | Cc1c(Nc2ccc(Br)cc2F)c(C(=O)NOCCO)c2n(c1=O)CCC2 [Compound 25]
12 | 9 nM | CONC(=O)c1c(Nc2ccc(I)cc2F)cc(=O)n2c1CCC2 [Compound 41]
13 | 0.8 nM | O=C(NOCC1CC1)c1c(Nc2ccc(I)cc2F)cc(=O)n2c1CCC2 [Compound 39]
14 | 0.4 nM | O=C(NOCC1CC1)c1c(Nc2ccc(I)cc2F)c(F)c(=O)n2c1CCC2 [Compound 45]

— patent US20090275606A1, “Heterocyclic Compounds as MEK Inhibitors” (Novartis AG, priority 2008, published 2009)
